Patent publication US5112866A, “Ethanesulfonamide derivatives” (Ortho Pharmaceutical Corporation, priority 1989, dated 1992)
Where a name gives a salt, the structure may show the parent alone. Read-outs that look alike come from different tables or passages of the source.

Experiments:
[1] = system: Mouse osteoblastic-line cells (MC3T3-El); assay: Mouse Osteoblast-line Cell Proliferation (3H-thymidine); format: cell-based; settings: 0.1% FBS
Experimental: Pharmacology of the Ethenesulfonyl Fluoride Compounds--In Vitro Mouse Osteoblast-line Cell Proliferation
Reagents: Mouse osteoblastic-line cells (MC3T3-El) were plated in Dulbeccos Modified Eagles Medium (DMEM) with 25 mM Hepes Buffer, L-Glutamine, D-Glucose(4.5 gm/1) supplemented with 10% fetal bovine sera, Penicillin (100 units/ml) and Streptomycin ([…]) (Penicillin-Streptomycin liquid) and sodium pyruvate (10 μM final concentration). ^3 H-Thymidine (6.7 Ci/mmole) was diluted in DMEM media without FBS and filter sterilized. An aliquot of this solution was delivered to each culture well to a final concentration of ^3 H-thymidine of 0.4 μCi per well (2 μCi/ml).
Test Preparations: Solutions of the test compound were made on the day before incubation. These compounds were solubilized in either ethanol or DMSO at a concentration of 100 mM containing 0.1% FBS. The solutions were filter sterilized and then sterile serial dilutions were performed with DMEM media containing 0.1% FBS.
Osteoblast line cells were plated into 96 well culture plates, 1600 cells in 100 μL per well in DMEM with 25 mM Hepes Buffer, L-Glutamine, D-Glucose (4.5 gm/L) supplemented with 10% fetal bovine sera, Penicillin (100 units/mL) and Streptomycin (100 μg/mL) and sodium Pyruvate (10 μM final concentration). The media was replaced with DMEM containing no FBS and the cells were then incubated for an additional 24 hours. The following day, test compounds were added and screened at concentrations ranging from 10^-10 to 10^-5 M in the Presence of 0.1% FBS. The cells were then incubated an additional 20 hours. At this time 0.4 μ/Ci of 3H-thymidine was added to each culture well and the cells were incubated an additional 4 hours. The cells were then harvested with a Skatron Cell Harvester onto a glass fiber filter and washed with water, %5 trichloroacetic acid (TCA) and then 95% ethanol. The filters were then processed and counted on the LKB beta plate scintillation counter.

[2] = system: Rabbit Isolated Parietal Cells; assay: Inhibition of 14C-aminopyrine accumulation in stimulated rabbit isolated parietal cells; format: cell-based; settings: Oryctolagus cuniculus, 37° C.
From the text: Pharmacology of the Ethanesulfonamide Compounds - Rabbit Isolated Parietal Cells
Parietal cells were isolated from the fundic mucosa of rabbit stomachs by a four-stage collagenase digestion Process. The supernatant fraction from the last two stages of this Process contained the individual parietal cells. This cell suspension was centrifuged and reconstituted in a modified Hank's buffer to contain 2-3×10^6 cells/ml. […] The accumulation is stimulated by histamine and is blocked by H2 antagonists. Accumulation of ^14 C-AP is also stimulated by dibutyryl cAMP (dbcAMP). The cells were incubated with 0.5×10^6 cpm ^14 C-AP, with various concentrations of histamine or dbcAMP, […] isobutylmethylxanthine, and test compound added in a 20 μl volume of buffer or dimethylsulfoxide. The flasks were incubated in a shaking water bath at 37° C. Two 0.5 ml aliquots were then taken from each flask and cell pellets were collected by centrifugation. The pellets were solubilized with Protosol (NEN) and radioactivity determined by liquid scintillation spectrometry.
The concentration of compound required to inhibit ^14 C-AP accumulation in the stimulated parietal cell by 50% (IC50) was determined.

Gastric Secretion = assay: Inhibition of Gastric Secretion in Rat (pylorus ligated); format: in vivo, rat (male Charles River); settings: intraduodenal, four hours after pylorus ligation
Experimental: Inhibition of Gastric Secretion in Rat
Male Charles River rats weighing 150-300 grams were deprived of food but not water for 18-24 hours prior to use. Water was withheld during the experiment. The rats were weighed, anesthetized with ether and the pylorus ligated according to the method of Shay, H. et al., Gastroenterol. 26, 906 (1954). Test compounds were suspended in a 0.5% aqueous solution of methylcellulose (15 cps) and administered intraduodenally (i.d.) at the time of ligation. The rats were housed two per cage and sacrificed with CO2 four hours after ligation. The stomachs were removed and contents emptied into a graduated centrifuge tube. The tubes were centrifuged, the volume of gastric juice recorded, and any samples obviously contaminated by feces, food or blood eliminated. A 1 ml aliquot of gastric juice was titrated with 0.1 N NaOH to a pH of 7.0-7.4.
The volume of gastric juice secreted, the acid concentration, and the product of the volume times the concentration, i.e., the total amount of acid secreted, were statistically compared by a student's t-test using the pooled error variance.

[3] = 14C-AP accumulation stimulated by dibutyryl cAMP, read-out: IC50 (dbcAMP)
[4] = 14C-AP accumulation stimulated by histamine, read-out: IC50 (H)

IC50 [2, 3] [nM]	IC50 [2, 4] [nM]	SMILES	Mouse Osteoblast-line Cell Proliferation [Expressed as a Percent of Control] ([1]; 0.001 μM)	Mouse Osteoblast-line Cell Proliferation [Expressed as a Percent of Control] ([1]; 0.01 μM)	Mouse Osteoblast-line Cell Proliferation [Expressed as a Percent of Control] ([1]; 0.1 μM)	Mouse Osteoblast-line Cell Proliferation [Expressed as a Percent of Control] ([1]; 1.0 μM)	Mouse Osteoblast-line Cell Proliferation [Expressed as a Percent of Control] ([1]; 10 μM)	% Reduction of Total Acid Output (Gastric Secretion; Dose 40 MPK) [%]	% Reduction of Total Acid Output (Gastric Secretion; Dose 20 MPK) [%]
–	–	CCCCc1ccc(NCCS(=O)(=O)F)cc1 [Example 19, Monohydrochloride]	109.0% of Control	143.3% of Control	159.8% of Control	97.4% of Control	115.7% of Control	–	–
–	–	O=S(=O)(F)CCNc1ccccc1 [Example 18, Monohydrochloride]	132.6% of Control	125.6% of Control	108.1% of Control	93.1% of Control	95.9% of Control	–	–
–	–	COc1ccc(NCCS(=O)(=O)F)cc1 [Example 17, Monohydrochloride]	165.5% of Control	148.9% of Control	129.1% of Control	115.9% of Control	108.8% of Control	–	–
10000	1000	O=S(=O)(CCNc1ccccc1)NCCCOc1cccc(CN2CCCCC2)c1 [Example 6, 2-(Phenylamino)-N-[3-[3-(piperidinomethyl)phenoxy]propyl]ethanesulfonamide]	–	–	–	–	–	–	–
–	–	COc1ccc(CCN(C)CCS(=O)(=O)F)cc1OC [Example 24, N-[2-(Fluorosulfonyl)ethyl]-3,4-dimethoxy-N-methylphenethylamine]	150.4% of Control	143.9% of Control	153.5% of Control	123.3% of Control	106.7% of Control	–	–
130	370	O=S(=O)(CCNc1ccc(Cl)c(Cl)c1)NCCCOc1cccc(CN2CCCCC2)c1 [Example 1]	–	–	–	–	–	47.9	–
2300	390	CCOC(=O)c1ccc(NCCS(=O)(=O)NCCCOc2cccc(CN3CCCCC3)c2)cc1 [Example 3]	–	–	–	–	–	25.6	–
230	280	CCCCc1ccc(NCCS(=O)(=O)NCCCOc2cccc(CN3CCCCC3)c2)cc1 [Example 10, 2-[(4-Butylphenyl)amino]-N-[3-[3-(piperidinomethyl)phenoxy]propyl]ethanesulfonamide]	–	–	–	–	–	–	23.3
–	–	CCc1ccc(NCCS(=O)(=O)F)cc1 [Example 25, Monohydrochloride]	139.4% of Control	123.3% of Control	100.9% of Control	110.6% of Control	90.0% of Control	–	–
2000	840	CC(C)Oc1ccc(NCCS(=O)(=O)NCCCOc2cccc(CN3CCCCC3)c2)cc1 [Example 7, 2-[[4-(1-Methylethony)Phenyl]amino]-N-[3-[3-(piperidinomethyl)Phenoxy]propyl]ethanesulfonamide]	–	–	–	–	–	–	–
3700	120	O=[N+]([O-])c1ccc(NCCS(=O)(=O)NCCCOc2cccc(CN3CCCCC3)c2)cc1 [Example 4, 2-[(4-Nitrophenyl)amino]-N-[3-[3-(piperidinomethyl)phenoxy]propyl]ethanesulfonamide]	–	–	–	–	–	30.8	–
–	–	O=S(=O)(F)CCNc1ccc(C(F)(F)F)cc1 [Example 23]	108.1% of Control	97.9% of Control	107.3% of Control	120.8% of Control	111.7% of Control	–	–
860	370	O=S(=O)(CCNc1ccc(Br)cc1)NCCCOc1cccc(CN2CCCCC2)c1 [Example 5]	–	–	–	–	–	–	–
–	–	CC(C)(C)c1ccc(NCCS(=O)(=O)F)cc1 [Example 26, Hydrate]	152.8% of Control	165.7% of Control	89.9% of Control	102.7% of Control	93.2% of Control	–	–
–	–	O=S(=O)(F)CCNc1ccc(F)cc1 [Example 20, Monohydrochloride]	133.4% of Control	111.8% of Control	110.2% of Control	116.9% of Control	112.3% of Control	–	–
–	–	Cc1ccc(NCCS(=O)(=O)F)cc1 [Example 21]	131.5% of Control	132.0% of Control	126.6% of Control	119.9% of Control	111.8% of Control	–	–
–	–	CC(C)c1ccc(NCCS(=O)(=O)F)cc1 [Example 27, Hydrate]	137.2% of Control	130.0% of Control	106.9% of Control	110.8% of Control	97.7% of Control	–	–
–	–	CCOC(=O)c1ccc(NCCS(=O)(=O)F)cc1 [Example 16]	132.8% of Control	142.1% of Control	127.5% of Control	136.5% of Control	154.7% of Control	–	–
–	–	COc1ccc(NCCS(=O)(=O)F)cc1OC [Example 22, Monohydrochloride]	143.6% of Control	133.6% of Control	116.4% of Control	113.5% of Control	106.7% of Control	–	–

SMILES	IC50 [2, 3] [nM]	IC50 [2, 4] [nM]	Mouse Osteoblast-line Cell Proliferation [Expressed as a Percent of Control] ([1]; 0.001 μM)	Mouse Osteoblast-line Cell Proliferation [Expressed as a Percent of Control] ([1]; 0.01 μM)	Mouse Osteoblast-line Cell Proliferation [Expressed as a Percent of Control] ([1]; 0.1 μM)	Mouse Osteoblast-line Cell Proliferation [Expressed as a Percent of Control] ([1]; 1.0 μM)	Mouse Osteoblast-line Cell Proliferation [Expressed as a Percent of Control] ([1]; 10 μM)	% Reduction of Total Acid Output (Gastric Secretion; Dose 40 MPK) [%]	% Reduction of Total Acid Output (Gastric Secretion; Dose 20 MPK) [%]
CCCCCOc1ccc(NCCS(=O)(=O)NCCCOc2cccc(CN3CCCCC3)c2)cc1 [Example 8, 2-[(4-Pentoxyphenyl)amino]-N-[3-[3-(piperidinomethyl)phenoxy]propyl]ethanesulfonamide]	370	330	–	–	–	–	–	–	–
